From patent US20130281528A1, “METHOD OF TREATING GASTRIC CANCER” (Niiki Pharma Acquisition Corp.2, priority 2010, published 2013)

Test system: human gastric cancer cell line NCI-N87
Assay: ATCC's MTT Cell Proliferation Assay
Format: cell-based
Settings: 72 hours post-treatment, concentration that inhibits cell growth by 50%
Description: To test the activities of sodium trans-[tetrachlorobis(1H-indazole)ruthenate(III)], ATCC's MTT Cell Proliferation Assay® was performed using human gastric cancer cell line NCI-N87 (differentiated carcinoma). Stock cultures were allowed to grow to 70-80% confluence for this study. The anti-proliferative activity of sodium trans-[tetrachlorobis(1H-indazole)ruthenate(III)], against the indicated cell line was evaluated in vitro using the ATCC's MTT Cell Proliferation Assay (Catalog No. 30-1010K). NCI-N87 was grown using RPMI1640 (Cell Gro 10-040-CV), with 1% of 1M HEPES, 1% sodium pyruvate, 1% of 45% glucose solution, 10% of heat-inactivated FBS and 1% of pen/strep/glutamine. […] The plates were left overnight at room temperature in the dark and was read on a plate reader using SoftMax® Pro (version 5.2, Molecular Devices).
The absorbance data was analyzed as follows: Absorbance values were converted to Percent of Control and plotted against test agent concentrations for IC50 calculations using SoftMax® Pro (version 5.2, Molecular Devices). […] Percent of Control values were calculated by dividing the absorbance values for each test well by the No Drug Control average (column 11 values; cells+vehicle control) and multiplying by 100. […]

[Cl][Ru-]([Cl])([Cl])[Cl].[Na+].c1ccc2[nH]ncc2c1.c1ccc2[nH]ncc2c1 [sodium trans-[tetrachlorobis(1H-indazole)ruthenate(III)]]
IC50: 3.73 µM
